In patent publication US12491182B2, “Polymorphs of triazole antifungal compound PC945” (Pulmocide Limited, priority 2019, dated 2025):

Experiment: Micronisation: particle size distribution and polymorphic integrity
Format: physicochemical
Conditions: for polymorphic integrity during micronisation (XRPD): XRPD trace after milling compared with before; for particle size distribution D10 / particle size distribution D50 / particle size distribution D90: after micronisation
Excerpt: Liquid suspension and aerosol formulations (whether pressurised or unpressurised) will typically contain the compound of the invention in particulate form, for example with a D50 of 0.5-10 μm, suitably around 1-5 μm, such as 1-2 μm. Suitably, the compound of the invention in particulate form has a D10 of 0.2 to 1 μm, such as 0.2 to 0.5 μm. Suitably, the compound of the invention in particulate form has a D90 of 2 to 6 μm such as 3 to 4 μm. The particulate form of the compound may, for example, be a micronised form. Micronisation may be performed using a jet mill such as those manufactured by Hosokawa Alpine. The resultant particle size distribution may be measured using laser diffraction (e.g. with a Malvern Mastersizer 2000S instrument). Particle size distributions may be represented using D10, D50 and D90 values. The Dso median value of particle size distributions is defined as the particle size in microns that divides the distribution in half. The measurement derived from laser diffraction is more accurately described as a volume distribution and consequently the D50 value obtained using this procedure is more meaningfully referred to as a Dv50 value (median for a volume distribution). As used herein Dv values refer to particle size distributions measured using laser diffraction. Similarly, D10 and D90 values, used in the context of laser diffraction, are taken to mean Dv10 and Dv90 values and refer to the particle size whereby 10% of the distribution lies below the D10 value, and 90% of the distribution lies below the D90 value, respectively.
A sample of crude input material (100 g, Form 3) was suspended in a mixture of 5% water in acetone (1.00 L), a seed of Form 1 (100 mg) was added and the mixture was stirred at RT overnight. The suspension was filtered and the filter cake was washed with a mixture of 5% water in acetone (20 mL) and the solids dried at 40° C. to provide polymorphic Form 1 as a white powder (85.5 g, 85.5% recovery, 98.7% purity by HPLC) as determined from its DSC trace (FIG. 9). Micronisation of the product so obtained provided a powder for which the particle size distribution, expressed in D values, was as follows: […].
Micronisation of the product so obtained provided a powder for which the particle size distribution, expressed in D values, was as follows: […]. It will be appreciated by those skilled in the art that these characteristics are suitable for a product intended for administration by inhalation. […] The Form 2 polymorph is therefore susceptible to and stable towards the micronisation process required to derive a material with the properties necessary for its intended purpose.

SMILES	polymorphic integrity during micronisation (XRPD)	particle size distribution D10	particle size distribution D50	particle size distribution D90
Cc1cc(N2CCN(c3ccc(C(=O)Nc4ccc(F)cc4)cc3)CC2)ccc1OC[C@@H]1CO[C@@](Cn2cncn2)(c2ccc(F)cc2F)C1 [Form 1, 4-(4-(4-(((3R,5R)-5-((1H-1,2,4-triazol-1-yl)methyl)-5-(2,4-difluorophenyl)tetrahydrofuran-3-yl)methoxy)-3-methylphenyl)piperazin-1-yl)-N-(4-fluorophenyl)benzamide]	polymorphic integrity was retained	0.75 µm	1.59 µm	3.23 µm
Cc1cc(N2CCN(c3ccc(C(=O)Nc4ccc(F)cc4)cc3)CC2)ccc1OC[C@@H]1CO[C@@](Cn2cncn2)(c2ccc(F)cc2F)C1 [Form 2, 4-(4-(4-(((3R,5R)-5-((1H-1,2,4-triazol-1-yl)methyl)-5-(2,4-difluorophenyl)tetrahydrofuran-3-yl)methoxy)-3-methylphenyl)piperazin-1-yl)-N-(4-fluorophenyl)benzamide]	no significant change	0.42 µm	1.24 µm	3.57 µm
